Source: article PMC6072516, “Rational design and synthesis of novel phenylsulfonyl-benzamides as anti-prostate cancer agents” (MedChemComm, 2017)
Read-outs that look alike come from different tables or passages of the source.

What was measured:
[1] = system: HEK293 human embryonic kidney cells; experiment: Cell Titer Blue viability (cytotoxicity) assay; type: cell-based
Experimental: (§1) A Cell Titer Blue viability assay was performed in the human embryonic kidney cell line HEK293, in order to evaluate the cytotoxicity profile of the newly prepared compounds. […] .
(§2) Fig. 5 HEK293 human embryonic kidney cells were treated at 70% confluence with negative controls (0.1% DMSO, BICAL at 10 μM), positive control (10% DMSO) and compounds at 10 μM concentration for 24 hours. […] Fluorescence was measured at 560/590 nm using a CLARIOstar luminescence plate reader (BMG Labtech). N = 4, n = 6 for controls, n = 3 for drugs. […]
(§3) for calculation of the geometric mean value. […]
(§4) of 0.05% Trypsin/EDTA. […] When all cells […]
(§5) chamber counting grid (Immune Systems). […]
(§6) confluence for assay the next day. […]
(§7) drugs at 10 µM concentration.
(§8) 100 µl media. […] Fluorescence was measured
(§9) USA). […] The Dunnett’s multiple […]
(§10) comparison test was used to compare each drug and the positive control to the negative control […]
(§11) Compound R1 X R2 Cell Viability Antiproliferative
(§12) Mean (%)* SEM** Abs. IC50
(§13) Table S2. Cell Viability assay at 10 µM. * Mean % of cell viability relative to control; ** Errors are calculated as standard error of the mean; ***Geometric mean.

[2] = Cell Titer Blue viability (cytotoxicity) assay; type: cell-based, human; details: human
Experimental: as §1, §2, §3, §4, §5, §6, §7, §8, §9, §10, §11, §12, §13

[3] = system: four human prostate cancer cell lines: LNCaP, 22Rv1, VCaP, DU145; experiment: Antiproliferative assay, overall effect in the four cell lines (geometric mean); type: cell-based; details: for IC50: geometric mean of the four cell lines, read-out: Absolute IC50 Geo. mean
Experimental: PCR based DNA-fingerprinting methodology.
density of 4.000 – 30.000 cells/well.
test compound were added.
concentrations in triplicate.
After an incubation period of
control/background ratio >3.0
The absolute IC50 value reflects the
The calculation was done by a 4
for calculation of the geometric mean value.
of 0.05% Trypsin/EDTA. […] When all cells

[4] = system: 22Rv1; experiment: 2D monolayer antiproliferative assay (propidium iodide), 22Rv1; details: Homo sapiens, 22Rv1, 96 h, read-out: Absolute IC50 22Rv1
Experimental: (§14) All new compounds along with the two standards were tested for their ability to inhibit survival and/or cell proliferation in four human prostate cancer cell lines: LNCaP, 22Rv1, VCaP, androgen-sensitive cell lines, and DU145, a non hormone-sensitive cell line.
(§15) Compound Handling: Stock solutions for all inhibitors were prepared in DMSO at a
(§16) were well soluble at this concentration in DMSO and precipitation was not observed for any
(§17) compound dissolved in 100% DMSO. Aliquots of the stock solution were thawed on the day
(§18) of use and stored at room temperature prior to and during treatment. The subsequent dilutions
(§19) were done with complete RPMI1640 cell culture medium. The DMSO stock solution was first
(§20) Starting with this solution, serial dilutions in
(§21) half-log steps with cell culture medium were done using an intermediate dilution plate. Finally,
(§22) 10 µl taken from the intermediate dilution plate were transferred to 140 µl / well of the cell
(§23) culture plate. Thus, at the highest test concentration the DMSO stock was diluted 1:330,
(§24) corresponding to a maximum DMSO concentration of 0.3 % v/v in the assay. Solubility of the
(§25) diluted compounds in the assay was monitored under the microscope by visual inspection of
(§26) the treated cell lines after the 4 days incubation. Precipitation as observed by crystalline
(§27) Tumor Cell lines: The cell line panel used for assessing the novel inhibitors comprised four
(§28) cell lines derived from human prostate cancers.
(§29) 6-7 Cell lines were routinely passaged once or twice weekly and maintained in culture for up to 20 passages. All cells were grown at 37°C in
(§30) glutamine, #FG1385, Biochrom, Berlin, Germany) supplemented with 10% (v/v) fetal calf serum (Sigma, Taufkirchen, Germany) and 0.1 mg/mL gentamicin (Life Technologies,
(§31) Cell Proliferation Assay: A modified propidium iodide (PI) based monolayer assay was used
(§32) exponential phase cultures, counted and plated in 96-well flat-bottom micro titer plates at a cell density of 4.000 – 30.000 cells/well. After a 24 h recovery period to allow the cells to resume exponential growth, 10 µl of culture medium (six control wells/plate) or culture medium with test compound were added. The compounds were applied in half-log increments at 10 concentrations in triplicate. After a total treatment period of 96 h, cells were washed with 200 µl PBS to remove dead cells and debris. Then, 200 µl of a solution containing 7 µg/ml propidium iodide (PI) and 0.1% (v/v) Triton X-100 was added. After an incubation period of 1-2 hours at room temperature, fluorescence (FU) was measured using the EnSpire Multimode Plate Reader (excitation λ= 530 nm, emission λ= 620 nm) to quantify the amount of attached
(§33) For calculation of mean IC50 values the geometric mean was used.
(§34) Data Evaluation: An assay was considered fully evaluable if the following quality control
(§35) - Z’-factor calculated within the assay plate ≥0.59
(§36) - fluorescence intensity of >500 U from the untreated control wells, equivalent to a
(§37) - coefficient of variation in the growth control wells ≤30
(§38) Compound effects were expressed in terms of the percentage of the fluorescence signal, obtained by comparison of the mean signal in the treated wells with the mean signal of the untreated controls (expressed by the test-versus-control value, T/C-value [%]):

[5] = system: DU-145; experiment: 2D monolayer antiproliferative assay (propidium iodide), DU-145; details: Homo sapiens, DU-145, 96 h, read-out: Absolute IC50 DU-145
Experimental: as §14, §15, §16, §17, §18, §19, §20, §21, §22, §23, §24, §25, §26, §27, §28, §29, §30, §31, §32, §33, §34, §35, §36, §37, §38

[6] = system: LNCaP; experiment: 2D monolayer antiproliferative assay (propidium iodide), LNCaP; details: for IC50: Homo sapiens, LNCaP, 96 h, read-out: Absolute IC50 LNCaP
Experimental: as §14, §15, §16, §17, §18, §19, §20, §21, §22, §23, §24, §25, §26, §27, §28, §29, §30, §31, §32, §33, §34, §35, §36, §37, §38

[7] = system: VCaP; experiment: 2D monolayer antiproliferative assay (propidium iodide), VCaP; details: Homo sapiens, 96 h, read-out: Absolute IC50 VCaP
Experimental: as §14, §15, §16, §17, §18, §19, §20, §21, §22, §23, §24, §25, §26, §27, §28, §29, §30, §31, §32, §33, §34, §35, §36, §37, §38

[8] = 10 µM, 24 h, HEK293, mean % of cell viability relative to control, read-out: Cell Viability Mean (%)

| IC50 ([3]; Homo sapiens) [µM] | IC50 [3] [µM] | IC50 [4] [µM] | IC50 [5] [µM] | IC50 [6] [µM] | IC50 [7] [µM] | increase of IC50 values, sulfone vs thioether ([3]; 11c vs 13c) | Absolute IC50 LNCaP ([6]; 96 h treatment, mean of triplicate, SD ±10%) | SMILES | Cell Viability Mean (%) ([1]; 10 µM) | viability at 24 h, 10 µM ([2]; HEK293 cells, 10 µM, 24 h, HEK293, mean % of cell viability relative to control, read-out: Cell Viability Mean (%)) [%] | viability at 24 h, 10 µM [2, 8] [%] | viability at 24 h, 10 µM [2] [%] | reduction of overall effect in the four cell lines, ortho vs meta CF3 ([3]; 11h vs 11i) [fold] | reduction of cell viability / cells killed ([1]; human, 24 h, 10 μM) |
| --- | --- | --- | --- | --- | --- | --- | --- | --- | --- | --- | --- | --- | --- | --- |
| < 16 | 12.5 | 6.96 | 9.89 | 12.5 | 28.2 | – | – | O=C(Nc1cccc(C(F)(F)F)c1)c1ccc(Sc2cccc(C(F)(F)F)c2)cc1 [Compound 12h] | – | – | – | 112 | – | – |
| 8.5 | – | 6.44 | 9.92 | 8.41 | 9.72 | up to 2 fold | – | O=C(Nc1cc(C(F)(F)F)cc(C(F)(F)F)c1)c1ccc(S(=O)(=O)c2ccc(O)cc2)cc1 [Compound 13c] | – | – | – | 65.7 | – | – |
| 25.2 | – | 20.7 | 27.8 | 23.2 | 30.5 | – | – | O=C(Nc1cc(C(F)(F)F)ccc1C(F)(F)F)c1ccc(S(=O)(=O)c2ccc(O)cc2)cc1 [Compound 13d] | – | – | – | – | – | – |
| 5.37 | – | 5.78 | 10.8 | 2.49 | 5.35 | – | – | O=C(Nc1ccc(S(F)(F)(F)(F)F)cc1)c1ccc(S(=O)(=O)c2ccc(O)cc2)cc1 [Compound 13e, 4-((4-Hydroxyphenyl)sulfonyl)-N-(4-(pentafluorothio)phenyl)benzamide] | – | – | – | 38.4 | – | more than 50% |
| 6.18 | – | 5.66 | 6.01 | 3.98 | 10.8 | – | – | O=C(Nc1cccc(S(F)(F)(F)(F)F)c1)c1ccc(S(=O)(=O)c2ccc(O)cc2)cc1 [Compound 13f, N-(3-(Pentafluorosulfanyl)phenyl)-4-((4-hydroxyphenyl)sulfonyl)benzamide] | – | – | – | 76.2 | – | – |
| 19.7 | – | 16.8 | 30.7 | 10.8 | 27.2 | – | – | O=C(Nc1ccc(C(F)(F)F)cc1)c1ccc(S(=O)(=O)c2ccc(O)cc2)cc1 [Compound 13g] | – | – | – | 61.8 | – | – |
| < 16 | 16.8 | 15.1 | 17.7 | 10.2 | 30.1 | – | – | O=C(Nc1cccc(C(F)(F)F)c1)c1ccc(S(=O)(=O)c2ccc(O)cc2)cc1 [Compound 13h] | – | – | – | 87.6 | – | – |
| 49.1 | – | 49.3 | 45.9 | 39.3 | 65.2 | – | – | O=C(Nc1ccccc1C(F)(F)F)c1ccc(S(=O)(=O)c2ccc(O)cc2)cc1 [Compound 13i] | – | – | – | 129 | – | – |
| 3.75 | – | 5.6 | 11 | 0.9 | 3.53 | – | sub μM | O=C(Nc1ccc(S(F)(F)(F)(F)F)cc1)c1ccc([S+]([O-])c2ccc(O)cc2)cc1 (stereo not shown) [Compound 14e, 4-((4-Hydroxyphenyl)sulfinyl)-N-(4-(pentafluorothio)phenyl)benzamide] | – | – | – | 59.7 | – | – |
| – | – | > 100 | > 100 | 62 | 97.6 | – | – | O=C(Nc1ccccc1C(F)(F)F)c1ccc([S+]([O-])c2ccc(O)cc2)cc1 (stereo not shown) [Compound 14i] | – | – | – | 104 | – | – |

Second part, the molecule before the results:

| SMILES | IC50 ([3]; Homo sapiens) [µM] | IC50 [3] [µM] | IC50 [4] [µM] | IC50 [5] [µM] | IC50 [6] [µM] | IC50 [7] [µM] | increase of IC50 values, sulfone vs thioether ([3]; 11c vs 13c) | Absolute IC50 LNCaP ([6]; 96 h treatment, mean of triplicate, SD ±10%) | Cell Viability Mean (%) ([1]; 10 µM) | viability at 24 h, 10 µM ([2]; HEK293 cells, 10 µM, 24 h, HEK293, mean % of cell viability relative to control, read-out: Cell Viability Mean (%)) [%] | viability at 24 h, 10 µM [2, 8] [%] | viability at 24 h, 10 µM [2] [%] | reduction of overall effect in the four cell lines, ortho vs meta CF3 ([3]; 11h vs 11i) [fold] | reduction of cell viability / cells killed ([1]; human, 24 h, 10 μM) |
| --- | --- | --- | --- | --- | --- | --- | --- | --- | --- | --- | --- | --- | --- | --- |
| C[S+](C)[O-] [10% DMSO] | – | – | – | – | – | – | – | – | 1.45 | – | – | – | – | – |
| C[C@](O)(CS(=O)(=O)c1ccc(F)cc1)C(=O)Nc1ccc(C#N)c(C(F)(F)F)c1 [Bicalutamide, bicalutamide, reference compound] | 50 | 52.4 | – | – | – | – | – | – | – | 94.6 | – | – | – | – |
| N#Cc1ccc(NC(=O)c2ccc(Sc3ccc(O)cc3)cc2)cc1C(F)(F)F [Compound 11a] | 7.08 | – | 6.24 | 7.77 | 5.43 | 9.55 | – | – | – | – | 65.7 | – | – | – |
| O=C(Nc1ccc([N+](=O)[O-])c(C(F)(F)F)c1)c1ccc(Sc2ccc(O)cc2)cc1 [Compound 11b] | 4.68 | – | 4.5 | 5.74 | 3.58 | 5.19 | – | – | – | – | – | 65.4 | – | – |
| O=C(Nc1cc(C(F)(F)F)cc(C(F)(F)F)c1)c1ccc(Sc2ccc(O)cc2)cc1 [Compound 11c] | 3.28 | – | 3.35 | 5.6 | 2.39 | 2.59 | – | – | – | – | – | 64.2 | – | – |
| O=C(Nc1cc(C(F)(F)F)ccc1C(F)(F)F)c1ccc(Sc2ccc(O)cc2)cc1 [Compound 11d] | 12.1 | – | 10.3 | 16.6 | 11.4 | 10.9 | – | – | – | – | – | 53.7 | – | – |
| O=C(Nc1ccc(S(F)(F)(F)(F)F)cc1)c1ccc(Sc2ccc(O)cc2)cc1 [Compound 11e] | 5.43 | – | 3.71 | 6.76 | 4.86 | 7.15 | – | – | – | – | – | 49.5 | – | – |
| O=C(Nc1cccc(S(F)(F)(F)(F)F)c1)c1ccc(Sc2ccc(O)cc2)cc1 [Compound 11f] | 4.01 | – | 2.94 | 4.35 | 3.32 | 6.1 | – | – | – | – | – | 60.5 | – | – |
| O=C(Nc1ccc(C(F)(F)F)cc1)c1ccc(Sc2ccc(O)cc2)cc1 [Compound 11g] | 8.09 | – | 6.23 | 8.55 | 8.3 | 9.68 | – | – | – | – | – | 66.3 | – | – |
| O=C(Nc1cccc(C(F)(F)F)c1)c1ccc(Sc2ccc(O)cc2)cc1 [Compound 11h] | – | – | 5.73 | 5.95 | 9.66 | 10.6 | – | – | – | – | – | 85.6 | – | – |
| O=C(Nc1ccccc1C(F)(F)F)c1ccc(Sc2ccc(O)cc2)cc1 [Compound 11i] | 25.2 | – | 30.9 | 35.7 | 11.4 | 32.3 | – | – | – | – | – | 111 | 3 | – |
| N#Cc1ccc(NC(=O)c2ccc(Sc3cccc(C(F)(F)F)c3)cc2)cc1C(F)(F)F [Compound 12a] | 5.5 | – | 3.57 | 5.12 | 8.87 | 5.66 | – | – | – | – | 60 | – | – | – |
| N#Cc1ccc(NC(=O)c2ccc(S(=O)(=O)c3ccc(O)cc3)cc2)cc1C(F)(F)F [Compound 13a] | 8.84 | – | 12.1 | 12.6 | 4.68 | 8.56 | – | – | – | – | 73 | – | – | – |
| O=C(Nc1ccc([N+](=O)[O-])c(C(F)(F)F)c1)c1ccc(S(=O)(=O)c2ccc(O)cc2)cc1 [Compound 13b] | – | – | 7.3 | 8.85 | 4.96 | 8.57 | – | – | – | – | – | 82.3 | – | – |
| N#Cc1ccc(NC(=O)c2ccc(S(=O)(=O)c3cccc(C(F)(F)F)c3)cc2)cc1C(F)(F)F [Compound 15a] | 4.71 | – | 3.57 | 4.7 | 3.73 | 7.87 | – | – | – | – | 79 | – | – | – |
| O=C(Nc1cccc(C(F)(F)F)c1)c1ccc(S(=O)(=O)c2cccc(C(F)(F)F)c2)cc1 [Compound 15h] | – | – | – | – | – | – | – | – | – | – | – | 83.9 | – | – |
